{"source": "patent US9131696B2", "about": "“Herbicidal compositions comprising fluroxypyr and flumetsulam” (Dow AgroSciences LLC, priority 2012, dated 2015)", "experiment_in_all_cases": "Post-emergence field trial, visual weed control", "format_in_all_cases": "in vivo", "key": {"[1]": {"system": "AMARE = pigweed, redroot (Amaranthus retroflexus L.)", "conditions": "foliar", "protocol": "(§1) Multiple post-emergence field trials were conducted under field conditions in the United States (Mississippi, South Dakota, and Minnesota) and Mexico. Trial sites were located in commercially grown fields of corn (ZEAMX), spring wheat (TRZAS), and winter wheat (TRZAW), using standard herbicide small plot research methodology. Post-emergence trial plot size varied from 2 to 3 meter (m)×4 to 5 m (width×length) with 4 replicates per treatment. The crops were grown using normal cultural practices for fertilization, seeding, watering, and maintenance to ensure good growth of the crops and the weeds.\n(§2) All treatments in the post-emergence field trials were applied using a backpack compressed carbon dioxide (CO2) or nitrogen (N2) sprayer with flat fan nozzles calibrated to apply 94 to 250 liters per hectare (L/ha) spray volume at approximately 30-40 pounds per square inch (psi) nozzle pressure. Commercially available products of fluoroxypyr-meptyl (STARANE® 200, 200 grams acid equivalent per liter (g ae/L) and fluoroxypyr-meptyl EC 240 g ae/L) and flumetsulam (75WDG) were mixed in water at appropriate formulated product rates to achieve the desired rates based on a unit area of application (hectare) to achieve the desired rates as shown. […] Treatments were rated at 7 to 45 days after application (DAA) as compared to the untreated control plants. Visual weed control was scored on a scale of 0 to 100 percent where “0” corresponds to no injury and “100” corresponds to complete kill.\n(§3) The trial sites had naturally occurring populations of weeds. The weed spectrum included, but was not limited to, AMARE, AMASS, CHEAL, CHEMU, IPOLA, KCHSC, POLCO, RUMCR, and SASKR.\n(§4) A t-test (alpha=0.05) between Colby predictions and observed combinations was used to test for significant differences indicating synergy or antagonism using replicate data.\n(§5) The following equation was used to calculate the expected activity of mixtures containing two active ingredients, A and B: Expected=A+B−(A×B/100) • A=observed efficacy of active ingredient A at the same concentration as used in the mixture; • B=observed efficacy of active ingredient B at the same concentration as used in the mixture."}, "[2]": {"system": "AMASS = pigweed species (Amaranthus sp.)", "conditions": "foliar; for Flumetsulam % Visual Weed Control: flumetsulam 20 g ai/ha", "protocol": "as §1, §2, §3, §4, §5"}, "[3]": {"system": "CHEAL = lambsquarters, common (Chenopodium album L.)", "conditions": "30 days after application, foliar", "protocol": "as §1, §2, §3, §4, §5"}, "[4]": {"system": "CHEMU = goosefoot, nettleleaf (Chenopodium murale L.)", "conditions": "30 days after application, foliar", "protocol": "as §1, §2, §3, §4, §5"}, "[5]": {"system": "IPOLA = morningglory, pitted (Ipomoea lacunosa L.)", "conditions": "28 days after application, foliar", "protocol": "as §1, §2, §3, §4, §5"}, "[6]": {"system": "KCHSC = kochia (Kochia scoparia (L.) Schrad.)", "conditions": "28 days after application, foliar", "protocol": "as §1, §2, §3, §4, §5"}, "[7]": {"system": "POLCO = buckwheat, wild (Polygonum convolvulus L.)", "conditions": "28 days after application, foliar", "protocol": "as §1, §2, §3, §4, §5"}, "[8]": {"system": "RUMCR = dock, curly (Rumex crispus L.)", "conditions": "45 days after application, foliar", "protocol": "as §1, §2, §3, §4, §5"}, "[9]": {"system": "SASKR = thistle, Russian (Salsola iberica Sennen & Pau)", "conditions": "29 days after application, foliar", "protocol": "as §1, §2, §3, §4, §5"}}, "data": [{"smiles": "CCCCCCC(C)OC(=O)COc1nc(F)c(Cl)c(N)c1Cl", "note": "(racemic) [Fluroxypyr-Meptyl, (RS)-1-methylheptyl 4-amino-3,5-dichloro-6-fluoro-2-pyridyloxyacetate]", "values": [{"measurement": "Fluroxypyr-Meptyl % Visual Weed Control", "setting": "[1]; 13 days after application, fluroxypyr-meptyl 110 g ae/ha", "value": 8, "unit": "%"}, {"measurement": "Fluroxypyr-Meptyl % Visual Weed Control", "setting": "[1]; 28 days after application, fluroxypyr-meptyl 35 g ae/ha", "value": 3, "unit": "%"}, {"measurement": "Fluroxypyr-Meptyl % Visual Weed Control", "setting": "[1]; 28 days after application, fluroxypyr-meptyl 110 g ae/ha", "value": 13, "unit": "%"}, {"measurement": "Fluroxypyr-Meptyl % Visual Weed Control", "setting": "[2]; 7 days after application, fluroxypyr-meptyl 75 g ae/ha", "value": 15, "unit": "%"}, {"measurement": "Fluroxypyr-Meptyl % Visual Weed Control", "setting": "[2]; 14 days after application, fluroxypyr-meptyl 50 g ae/ha", "value": 21, "unit": "%"}, {"measurement": "Fluroxypyr-Meptyl % Visual Weed Control", "setting": "[2]; 14 days after application, fluroxypyr-meptyl 75 g ae/ha", "value": 18, "unit": "%"}, {"measurement": "Fluroxypyr-Meptyl % Visual Weed Control", "setting": "[3]; fluroxypyr-meptyl 75 g ae/ha", "value": 20, "unit": "%"}, {"measurement": "Fluroxypyr-Meptyl % Visual Weed Control", "setting": "[4]; fluroxypyr-meptyl 50 g ae/ha", "value": 20, "unit": "%"}, {"measurement": "Fluroxypyr-Meptyl % Visual Weed Control", "setting": "[4]; fluroxypyr-meptyl 75 g ae/ha", "value": 28, "unit": "%"}, {"measurement": "Fluroxypyr-Meptyl % Visual Weed Control", "setting": "[5]; fluroxypyr-meptyl 70 g ae/ha", "value": 20, "unit": "%"}, {"measurement": "Fluroxypyr-Meptyl % Visual Weed Control", "setting": "[6]; fluroxypyr-meptyl 35 g ae/ha", "value": 30, "unit": "%"}, {"measurement": "Fluroxypyr-Meptyl % Visual Weed Control", "setting": "[7]; fluroxypyr-meptyl 35 g ae/ha", "value": 38, "unit": "%"}, {"measurement": "Fluroxypyr-Meptyl % Visual Weed Control", "setting": "[7]; fluroxypyr-meptyl 70 g ae/ha", "value": 64, "unit": "%"}, {"measurement": "Fluroxypyr-Meptyl % Visual Weed Control", "setting": "[8]; fluroxypyr-meptyl 75 g ae/ha", "value": 50, "unit": "%"}, {"measurement": "Fluroxypyr-Meptyl % Visual Weed Control", "setting": "[9]; fluroxypyr-meptyl 35 g ae/ha", "value": 23, "unit": "%"}]}, {"smiles": "Cc1ccn2nc(S(=O)(=O)Nc3c(F)cccc3F)nc2n1", "note": "[Flumetsulam, 2′,6′-difluoro-5-methyl[1,2,4]triazolo-[1,5-a]pyrimidine-2-sulfonanilide]", "values": [{"measurement": "Flumetsulam % Visual Weed Control", "setting": "[1]; 13 days after application, flumetsulam 18 g ai/ha", "value": 81, "unit": "%"}, {"measurement": "Flumetsulam % Visual Weed Control", "setting": "[1]; 28 days after application, flumetsulam 35 g ai/ha", "value": 45, "unit": "%"}, {"measurement": "Flumetsulam % Visual Weed Control", "setting": "[2]; 7 days after application", "value": 79, "unit": "%"}, {"measurement": "Flumetsulam % Visual Weed Control", "setting": "[2]; 14 days after application", "value": 81, "unit": "%"}, {"measurement": "Flumetsulam % Visual Weed Control", "setting": "[3]; flumetsulam 15 g ai/ha", "value": 31, "unit": "%"}, {"measurement": "Flumetsulam % Visual Weed Control", "setting": "[3]; flumetsulam 30 g ai/ha", "value": 35, "unit": "%"}, {"measurement": "Flumetsulam % Visual Weed Control", "setting": "[3]; flumetsulam 60 g ai/ha", "value": 40, "unit": "%"}, {"measurement": "Flumetsulam % Visual Weed Control", "setting": "[4]; flumetsulam 15 g ai/ha", "value": 57, "unit": "%"}, {"measurement": "Flumetsulam % Visual Weed Control", "setting": "[4]; flumetsulam 30 g ai/ha", "value": 66, "unit": "%"}, {"measurement": "Flumetsulam % Visual Weed Control", "setting": "[4]; flumetsulam 60 g ai/ha", "value": 69, "unit": "%"}, {"measurement": "Flumetsulam % Visual Weed Control", "setting": "[5]; flumetsulam 18 g ai/ha", "value": 33, "unit": "%"}, {"measurement": "Flumetsulam % Visual Weed Control", "setting": "[6]; flumetsulam 35 g ai/ha", "value": 58, "unit": "%"}, {"measurement": "Flumetsulam % Visual Weed Control", "setting": "[7]; flumetsulam 18 g ai/ha", "value": 0, "unit": "%"}, {"measurement": "Flumetsulam % Visual Weed Control", "setting": "[7]; flumetsulam 35 g ai/ha", "value": 0, "unit": "%"}, {"measurement": "Flumetsulam % Visual Weed Control", "setting": "[8]; flumetsulam 15 g ai/ha", "value": 40, "unit": "%"}, {"measurement": "Flumetsulam % Visual Weed Control", "setting": "[8]; flumetsulam 30 g ai/ha", "value": 52, "unit": "%"}, {"measurement": "Flumetsulam % Visual Weed Control", "setting": "[8]; flumetsulam 60 g ai/ha", "value": 70, "unit": "%"}, {"measurement": "Flumetsulam % Visual Weed Control", "setting": "[9]; flumetsulam 9 g ai/ha", "value": 67, "unit": "%"}]}]}
